# According to patent publication US9034866B2 (Genentech, Inc., priority 2012, dated 2015):
# Where two headings read alike, the source gives them in different places.
# What was measured:
# [1] = test system: REL-A (p65) nuclear translocation in HeLa cells; assay: REL-A nuclear translocation assay (classical NF-kB signaling), high content imaging; assay type: cell-based; settings: Homo sapiens, compounds 4.5 hours, then 10 ng/mL TNF-α for 30 minutes, read-out: REL-A HeLa Transloc Assay (IC50)
# Protocol: (§1) (2) A second set of cell assay are used to define the selectivity of NIK inhibitors toward inhibition of classical vs. non-classical NF-kB signaling and rely on quantification of the nuclear translocation of p52 (NF-kB2) and REL-A (p65) using high content cellular imaging. For the p52 (non-classical NF-kB signaling) nuclear translocation assay, HeLa cells are treated with different concentrations of compounds (0.2% DMSO final) in medium containing 10% fetal bovine serum and then stimulated with 100 ng/mL, of an anti-lymphotoxin beta receptor antibody (R&D Systems) for 5 hours. In the REL-A nuclear translocation assay, HeLa cells are incubated with compounds (0.2% DMSO final) for 4.5 hours in medium containing 10% fetal bovine serum before stimulating them with 10 ng/mL tumor necrosis factor (TNF)-α (R&D Systems) for 30 minutes. Cells are fixed with 4% paraformaldehyde, permeabilized by adding 0.1% Triton X-100 in phosphate buffered saline, and then are incubated with either 2 ug/mL anti-p52 antibody (Millipore) or 400 ng/mL anti-REL-A (p65) antibody (Santa Cruz Biotechnology). Finally, the cells are incubated with an Alexa488-labeled secondary antibody (Invitrogen) and DRAQ5 DNA stain (Biostatus). Imaging is carried out using an Opera reader (Perkin Elmer) and data are analyzed with the aid of Acapella software (Perkin Elmer). The p52 or REL-A translocation into the nucleus is quantified by the ratio of the nuclear to cytoplasmic signal intensity. […] The compounds in listed in Table 1 have the corresponding inhibitory value (IC50 in micromolar) for NIK p52 Translocation Assay as set forth in Table 2.
# The compounds in listed in Table 1 has the corresponding inhibitory value (IC50 in micromolar) for NIK RelA Translocation Assay as set forth in Table 2.
# [2] = test system: p52 (NF-kB2) nuclear translocation in HeLa cells; assay: p52 nuclear translocation assay (non-classical NF-kB signaling), high content imaging; assay type: cell-based; settings: Homo sapiens, 100 ng/mL anti-lymphotoxin beta receptor antibody for 5 hours, read-out: p52 HeLa Transloc Assay (IC50)
# Protocol: as §1
# [3] = target: nuclear factor-kappa B (NF-kB)-inducing kinase (NIK) (Homo sapiens (Human), UniProt Q99558); assay: NIK Enzyme Inhibition Assay (Transcreener ADP fluorescence polarization); assay type: biochemical; settings: purified NIK 0.2-1 nM, 10 uM ATP, Morrison's quadratic equation; read-out: NIK ADP-FP (Ki uM)
# Summary of the method: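 Baculovirus/insect-cell-expressed NIK (0.2-1 nM) incubated with compounds 1-3.5 h at 10 uM ATP. Buffer: 50 mM HEPES pH 7.2, 10 mM MgCl2, 2 mM DTT, 1% DMSO. ADP detected by Transcreener fluorescence polarization (ADP antibody, AlexaFluor 633 tracer) after EDTA quench.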
# Sequence of nuclear factor-kappa B (NF-kB)-inducing kinase (NIK) (Q99558 whole entry): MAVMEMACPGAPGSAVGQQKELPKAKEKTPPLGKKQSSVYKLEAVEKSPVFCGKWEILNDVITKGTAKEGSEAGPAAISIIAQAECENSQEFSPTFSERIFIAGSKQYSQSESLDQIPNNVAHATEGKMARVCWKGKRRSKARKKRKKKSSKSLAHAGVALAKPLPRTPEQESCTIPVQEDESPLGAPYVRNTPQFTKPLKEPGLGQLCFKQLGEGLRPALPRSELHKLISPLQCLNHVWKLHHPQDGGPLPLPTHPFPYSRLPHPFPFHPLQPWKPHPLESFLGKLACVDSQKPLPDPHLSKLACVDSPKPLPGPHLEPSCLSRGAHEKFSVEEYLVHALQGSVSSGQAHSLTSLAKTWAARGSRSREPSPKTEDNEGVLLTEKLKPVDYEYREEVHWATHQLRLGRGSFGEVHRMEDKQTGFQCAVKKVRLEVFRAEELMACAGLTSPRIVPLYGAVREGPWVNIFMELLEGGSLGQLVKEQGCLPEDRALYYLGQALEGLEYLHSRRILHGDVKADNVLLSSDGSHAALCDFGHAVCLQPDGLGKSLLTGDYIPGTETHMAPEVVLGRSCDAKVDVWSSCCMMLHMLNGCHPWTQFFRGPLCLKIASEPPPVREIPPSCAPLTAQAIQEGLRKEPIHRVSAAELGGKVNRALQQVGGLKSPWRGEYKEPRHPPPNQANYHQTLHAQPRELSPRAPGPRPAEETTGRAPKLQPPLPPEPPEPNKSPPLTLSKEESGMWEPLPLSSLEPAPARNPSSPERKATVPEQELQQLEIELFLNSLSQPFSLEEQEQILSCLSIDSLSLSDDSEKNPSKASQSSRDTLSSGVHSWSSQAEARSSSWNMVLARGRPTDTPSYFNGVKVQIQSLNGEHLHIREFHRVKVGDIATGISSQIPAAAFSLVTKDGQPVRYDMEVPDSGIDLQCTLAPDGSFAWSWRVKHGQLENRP
SMILES,IC50 ([1]; HeLa) [µM],"IC50 ([2]; HeLa, 5 h) [µM]",Ki [3] [µM],IC50 [1] [µM],IC50 [2] [µM]
"CC(C)(O)C#Cc1cc2c(cc1F)C1CC(C1)c1c-2nc(C(N)=O)n1C(F)F [Example 411, 9-fluoro-10-(3-hydroxy-3-methyl-but-1-ynyl)-3-(pyrrolidin-1-ylmethyl)-5,6,7,12-tetrahydro-5,7-methanobenzo[c]imidazo[1,2-a]azepine-2-carboxamide]",20,0.0732,–,–,–
"Cc1nc([C@](C)(O)C#Cc2ccc3c(c2)-c2nc(C(N)=O)c(Cc4ccnn4C)n2C2CC3C2)no1 [Example 260, 10-[(3R)-3-hydroxy-3-(5-methyl-1,2,4-oxadiazol-3-yl)but-1-ynyl]-3-[(2-methyl-pyrazol-3-yl)methyl]-5,6,7,12-tetrahydro-5,7-methanobenzo[c]imidazo[1,2-a]aze-pine-2-carboxamide]",> 20,4.8,–,–,–
"CNC(=O)c1c(C(N)=O)nc2n1C1CC(C1)c1cc(F)c(C#CC3(O)CCC3)cc1-2 [Example 368, 9-fluoro-10-[2-(1-hydroxycyclobutyl)ethy-nyl]-N3-methyl-5,6,7,12-tetrahydro-5,7-methanobenzo[c]imidazo[1,2-a]azepine-2,3-dicarboxamide]",> 20,0.342,–,–,–
CC(C)(O)C#Cc1cc2c(cc1F)OCCn1c-2nc(C(N)=O)c1-c1nc(C2CC2)n[nH]1,–,0.112,0.002,–,–
NC(=O)c1nc2n(c1C(O)c1ccn[nH]1)C1CC(C1)c1cc(F)c(C#CC3(O)CCCC3)cc1-2 (racemic) [Example 310],> 20,2.6,–,–,–
CNC(=O)c1c(C(N)=O)nc2n1C1CC(C1)c1cc(F)c(C#C[C@@](C)(O)c3cc(C)on3)cc1-2,–,0.683,0.008,–,–
CN1CCC(O)(C#Cc2ccc3c(c2)-c2nc(C(N)=O)sc2CCO3)C1=O (racemic),> 20,0.3,–,–,–
"Cc1nc2ccccc2n1Cc1c(C(N)=O)nc2n1CCOc1ccc(C#C[C@]3(O)CCN(C)C3=O)cc1-2 [Example 416, 9-fluoro-10-[(3R)-3-hydroxy-3-(5-methylisoxazol-3-yl)but-1-ynyl]-3-[1-(2-hydroxy-2-methyl-propyl)pyrazol-4-yl]-5,6,7,12-tetrahydro-5,7-methanobenzo[c]imidazo[1,2-a]azepine-2-carboxamide]",> 20,3.2,–,–,–
CN1CC[C@@](O)(C#Cc2ccc3c(c2)-c2nc(C(N)=O)sc2CCO3)C1=O [Example 276],20,0.0946,–,–,–
Cc1cc([C@](C)(O)C#Cc2cc3c(cc2F)OCCn2c-3nc(C(N)=O)c2C(=O)NCC#N)no1 [Example 107],–,–,–,20,0.0831
"CNC(=O)c1c(C(N)=O)nc2n1CCOc1cc(F)c(C#CC3(O)CCC3)cc1-2 [Example 362, 9-fluoro-10-[2-(1-hydroxycyclobutyl)ethy-nyl]-N3-methyl-5,6-dihydroimidazo[1,2-d][1,4]benzoxazepine-2,3-dicarbox-amide]",> 20,0.143,–,–,–
"CNC(=O)c1c(C(N)=O)nc2n1CCOc1ccc(C#C[C@]3(O)CCN(C)C3=O)cc1-2 (racemic) [Example 419, (±)-9-fluoro-10-(3-hydroxy-3-methyl-but-1-ynyl)-3-[(3-hydroxypyrrolidin-1-yl)methyl]-5,6,7,12-tetrahydro-5,7-methanobenzo[c]imidazo[1,2-a]azepine-2-carboxamide]",> 20,0.317,–,–,–
"Cc1cc([C@](C)(O)C#Cc2ccc3c(c2)-c2nc(C(N)=O)c(CN4CCCC4)n2C2CC3C2)no1 [Example 424, 10-(3-hydroxy-3-methyl-but-1-ynyl)-N3-methyl-5,6,7,12-tetrahydro-5,7-methanobenzo[c]imidazo[1,2-a]azepine-2,3-dicarboxamide]",> 20,3.2,–,–,–
"NC(=O)c1nc2n(c1C1CC1)C1CC(C1)c1cc(F)c(C#C[C@]3(O)CCNC3=O)cc1-2 [Example 338, 3-cyclopropyl-9-fluoro-10-[2-[(3R)-3-hy-droxy-2-oxo-pyrrolidin-3-yl]ethynyl]-5,6,7,12-tetrahydro-5,7-methano-benzo[c]imidazo[1,2-a]azepine-2-carboxamide]",> 20,3,–,–,–
CC(C)(O)C#Cc1cc2c(cc1F)C1CC(C1)n1c-2nc(C(N)=O)c1CNC(=O)C1CC1 (racemic),> 20,1.4,–,–,–
"CC(C)(O)C#Cc1cc2c(cc1F)C1CC(C1)n1c-2nc(C(N)=O)c1C(C)(C)O [Example 248, 9-fluoro-10-(3-hydroxy-3-methyl-but-1-ynyl)-3-(1-hydroxy-1-methyl-ethyl)-5,6,7,12-tetrahydro-5,7-methanobenzo[c]imi-dazo[1,2-a]azepine-2-carboxamide]",–,–,–,> 20,1.4
"CC(C)(O)C#Cc1cc2c(cc1F)C1CC(C1)n1c-2nc(C(N)=O)c1C1CC1 [Example 195, 3-cyclopropyl-9-fluoro-10-(3-hydroxy-3-methyl-but-1-ynyl)-5,6,7,12-tetrahydro-5,7-methanobenzo[c]imidazo[1,2-a]azepine-2-carboxamide]",> 20,2.4,–,–,–

SMILES,IC50 ([1]; HeLa) [µM],"IC50 ([2]; HeLa, 5 h) [µM]",Ki [3] [µM],IC50 [1] [µM],IC50 [2] [µM]
"Cc1c(C(N)=O)nc2n1C1CC(C1)c1cc(F)c(C#C[C@]3(O)CCN(C)C3=O)cc1-2 [Example 331, 9-fluoro-10-[2-[(3R)-3-hydroxy-1-meth-yl-2-oxo-pyrrolidin-3-yl]ethynyl]-3-meth-yl-5,6,7,12-tetrahydro-5,7-methano-benzo[c]imidazo[1,2-a]azepine-2-carboxamide]",> 20,1,–,–,–
"NC(=O)c1nc2c(s1)CCOc1cc(F)c(C#CC3(O)CCCC3)cc1-2 [Example 40, 8-fluoro-9-(1-hydroxy-cyclopentyl-ethynyl)-4,5-dihydro-6-oxa-3-thia-1-aza-benzo[e]azulene-2-carboxylic acid amide]",–,–,–,20,0.068
CN1CCC[C@@](O)(C#Cc2ccc3c(c2)-c2nc(C(N)=O)sc2C(F)(F)CO3)C1=O (racemic),> 20,0.184,–,–,–
"CN1CC[C@@](O)(C#Cc2cc3c(cc2F)C2CC(C2)c2c-3nc(C(N)=O)n2C)C1=O (mixture of isomers) [Example 381, (±)-10-[3-hydroxy-3-(2-pyridyl)but-1-ynyl]-5,6,7,12-tetrahydro-5,7 methanobenzo[c]imidazo[1,2-a]azepine-2-carboxamide]",> 20,0.285,–,–,–
CC(C)(O)Cn1cc(-c2c(C(N)=O)nc3n2C2CC(C2)c2ccc(C#CC4(O)CCCC4)cc2-3)cn1 [Example 289],> 20,2.7,–,–,–
CC(C)(O)C#Cc1cc2c(cc1F)OCCn1c-2nc(C(N)=O)c1C(O)c1cccc(C(F)(F)F)c1 (stereo not shown),–,0.344,0.019,–,–
COC[C@](C)(O)C#Cc1cc2c(cc1F)C1CC(C1)n1cc(C(N)=O)nc1-2,> 20,2.1,–,–,–
CN1CCC(O)(C#Cc2cc3c(cc2F)OCCn2cc(C(N)=O)nc2-3)C1=O (racemic),> 20,4.1,–,–,–
Cc1cc([C@](C)(O)C#Cc2ccc3c(c2)-n2nc(C(N)=O)cc2[C@H](F)CO3)no1,> 20,0.379,–,–,–
Cc1cc([C@](C)(O)C#Cc2cc3c(cc2F)OCCc2sc(C(N)=O)nc2-3)no1 [Example 39],20,0.038,–,–,–
CNC(=O)c1c(C(N)=O)nc2n1C1CC(C1)c1ccc(C#CC(C)(C)O)cc1-2 (racemic),> 20,0.736,–,–,–
CC(O)(C#Cc1cc2c(cc1F)C1CC(C1)n1cc(C(N)=O)nc1-2)CF (racemic),–,0.424,0.0031,–,–
CC(O)(C#Cc1cc2c(cc1F)OCCn1cc(C(N)=O)nc1-2)c1nccs1 (stereo not shown) [Example 144],–,0.483,–,–,–
CNC(=O)c1c(C(N)=O)nc2n1CCOc1cc(F)c(C#CC(C)(O)CF)cc1-2 (stereo not shown) [Example 109],–,–,–,–,0.272
Cc1cc([C@](C)(O)C#Cc2ccc3c(c2)-c2nc(C(N)=O)c([C@@H](O)c4ccnn4C)n2C2CC3C2)no1 [Example 359],–,1.2,–,–,–
Cc1cc([C@](C)(O)C#Cc2ccc3c(c2)-c2nc(C(N)=O)c([C@H](O)c4ccnn4C)n2C2CC3C2)no1,–,1.2,–,–,–
Cc1nc([C@](C)(O)C#Cc2cc3c(cc2F)C2CC(C2)n2cc(C(N)=O)nc2-3)no1,–,0.792,0.003,–,–
